Laboratory results reported in ChEMBL document CHEMBL5674860, “Optimized Dual-Glo Assay to identify co-culture-induced drug vulnerabilities in 3D CRC models” (2024).

How the values were obtained:
Format in all cases: functional, Homo sapiens
Parameters in all cases: dose or concentration left out as unconfirmed
Colon cancer organoid [1] = assay: Optimized Dual-Glo assay to identify co-culture induced drug vulnerabilities using donated chemical probes and chemogenomics kinase set in O06 CRC organoid and F06 CAF mono and co-culture. […] Cell viability is reported both mono and co-culture models.
Colon cancer organoid [2] = assay: Optimized Dual-Glo assay to identify co-culture induced drug vulnerabilities using donated chemical probes and chemogenomics kinase set in O14 CRC organoid and F14 CAF mono and co-culture. […] Cell viability is reported both mono and co-culture models.
Colon cancer organoid [3] = assay: Optimized Dual-Glo assay to identify co-culture induced drug vulnerabilities using donated chemical probes and chemogenomics kinase set in O20 CRC organoid and F20 CAF mono and co-culture. […] Cell viability is reported both mono and co-culture models.
[4] = Culture type Co-Culture, Transduced with Lucferase2-P2A-EGFP lentivirus
[5] = Culture type Co-Culture, Transduced with Renilla-dsRed lentivirus
[6] = Culture type Mono-Culture, Transduced with Lucferase2-P2A-EGFP lentivirus
[7] = Culture type Mono-Culture, Transduced with Renilla-dsRed lentivirus

SMILES | Cell Viability (Colon cancer organoid [1]; [4]) [%] | Cell Viability (Colon cancer organoid [1]; [5]) [%] | Cell Viability (Colon cancer organoid [1]; [6]) [%] | Cell Viability (Colon cancer organoid [1]; [7]) [%] | Cell Viability (Colon cancer organoid [2]; [4]) [%] | Cell Viability (Colon cancer organoid [2]; [5]) [%] | Cell Viability (Colon cancer organoid [2]; [6]) [%] | Cell Viability (Colon cancer organoid [2]; [7]) [%] | Cell Viability (Colon cancer organoid [3]; [4]) [%] | Cell Viability (Colon cancer organoid [3]; [5]) [%] | Cell Viability (Colon cancer organoid [3]; [6]) [%] | Cell Viability (Colon cancer organoid [3]; [7]) [%]
CC[C@@H]1CN(C(=O)NCC(F)(F)F)C[C@@H]1c1cnc2cnc3[nH]ccc3n12 [UPADACITINIB] | 104.182 | 86.3482 | 126.811 | 90.1732 | 168.996 | 89.117 | 123.387 | 83.332 | 123.754 | 83.5298 | 89.3672 | 88.6624
CNC(=O)c1ccccc1Nc1cc(Nc2ccc(N3CCOCC3)cc2OC)ncc1C(F)(F)F [VS-4718] | 52.8737 | 57.2971 | 31.5838 | 48.5863 | 33.8151 | 68.2368 | 15.2403 | 46.526 | 13.8337 | 72.4438 | 12.23 | 46.798
O=C(NNS(=O)(=O)c1ccccc1F)c1cc(F)cc(-c2ccccn2)c1 [WM-1119] | 97.0333 | 108.11 | 61.3742 | 91.757 | 33.671 | 171.323 | 39.6176 | 103.912 | 68.3772 | 152.012 | 102.739 | 96.1932
O=C(NNS(=O)(=O)c1ccccc1)c1cc(-c2ccnnc2)ccc1F [WM-2474] | 92.1572 | 93.3483 | 72.4696 | 112.209 | 77.1469 | 98.8333 | 101.234 | 91.9977 | 104.784 | 126.08 | 94.4259 | 109.751
C=CC(=O)N1CCC([C@@H]2CCNc3c(C(N)=O)c(-c4ccc(Oc5ccccc5)cc4)nn32)CC1 [ZANUBRUTINIB] | 36.1998 | 136.235 | 10.7372 | 131.234 | 47.5574 | 261.02 | 57.577 | 123.54 | 8.425 | 202.782 | 10.0679 | 138.33
Nc1nc(NCc2ccccc2)nc(-c2cccc(CO)c2)n1 [ZINC32547799] | 97.3324 | 116.001 | 131.751 | 105.708 | 88.7631 | 96.1691 | 137.995 | 97.2983 | 123.978 | 66.6285 | 56.0193 | 93.8657
FC(F)c1nc2ccccc2n1-c1nc(N2CCOCC2)nc(N2CCOCC2)n1 [ZSTK-474] | 29.4296 | 101.088 | 21.0208 | 93.8001 | 66.4922 | 94.4439 | 94.5351 | 81.6405 | 123.987 | 95.7276 | 79.3506 | 60.5776
